Assay results from ChEMBL document CHEMBL5143600, “Discovery and optimization of betulinic acid derivatives as novel potent CD73 inhibitors” (Bioorg Med Chem, 2022).
Active and inactive are the calls of the source. The rule behind the calls is not given here.

Assays:
MDA-MB-231 = experiment: Cytotoxicity against human MDA-MB-231 cells assessed as inhibition of cell growth incubated for 72 hrs by CCK-8 assay; assay type: functional, cell-based; conditions: MDA-MB-231, 72 h
MIA PaCa-2 = experiment: Cytotoxicity against human MIA PaCa-2 cells assessed as inhibition of cell growth incubated for 72 hrs by CCK-8 assay; assay type: functional, cell-based; conditions: MIA PaCa-2, 72 h
5'-nucleotidase [1] = molecular target: T1, 5'-nucleotidase (Homo sapiens, UniProt P21589); experiment: (§1) Inhibition of human CD73 assessed as reduction in inorganic phosphate release upon substrate hydrolysis using AMP[…] as substrate incubated for 1 hr followed by substrate addition and measured after 2 hrs by malachite green reagent based colorimetric assay
5'-nucleotidase [2] = molecular target: T2, 5'-nucleotidase (Mus musculus, UniProt Q61503); experiment: Inhibition of mouse CD73 assessed as reduction in inorganic phosphate release upon substrate hydrolysis using AMP[…] as substrate incubated for 1 hr followed by substrate addition and measured after 2 hrs by malachite green reagent based colorimetric assay
T2 sequence (Q61503 whole entry): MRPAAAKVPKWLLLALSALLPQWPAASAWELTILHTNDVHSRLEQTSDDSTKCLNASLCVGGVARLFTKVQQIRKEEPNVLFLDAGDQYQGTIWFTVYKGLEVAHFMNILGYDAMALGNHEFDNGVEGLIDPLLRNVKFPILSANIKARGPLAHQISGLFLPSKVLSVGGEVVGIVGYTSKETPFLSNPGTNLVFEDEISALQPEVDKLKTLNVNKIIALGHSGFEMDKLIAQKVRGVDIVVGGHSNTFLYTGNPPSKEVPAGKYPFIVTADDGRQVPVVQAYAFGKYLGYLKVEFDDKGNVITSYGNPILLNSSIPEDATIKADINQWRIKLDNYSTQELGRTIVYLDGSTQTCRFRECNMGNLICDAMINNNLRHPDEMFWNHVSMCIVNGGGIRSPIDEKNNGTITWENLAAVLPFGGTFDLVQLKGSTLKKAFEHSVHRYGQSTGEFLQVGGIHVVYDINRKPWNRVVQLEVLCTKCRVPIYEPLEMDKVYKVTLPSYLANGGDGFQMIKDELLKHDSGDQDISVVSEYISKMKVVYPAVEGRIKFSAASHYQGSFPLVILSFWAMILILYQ

[3] = Selectivity index, ratio of IC50 for inhibition of mose CD73 to IC50 for inhibition of human CD73
5'-nucleotidase [4] = molecular target: T1, 5'-nucleotidase; experiment: as §1, with “Potency index, ratio of betulinic acid IC50 to test compound IC50 for inhibition” for “Inhibition”; conditions: time 3.0 hrs
CD4+ve Th = experiment: Induction of anti-CD3/CD28 antibodies-stimulated CD4-positive Th cell activation in C57BL/6J mouse assessed as reversal of AMP/EHNA-inhibited IFN-gamma production at 10 uM preincubated for 15 mins followed by AMP/EHNA addition and measured after 96 hrs by ELISA; assay type: functional, cell-based; conditions: time 5775.0 min

T1 sequence (P21589 whole entry): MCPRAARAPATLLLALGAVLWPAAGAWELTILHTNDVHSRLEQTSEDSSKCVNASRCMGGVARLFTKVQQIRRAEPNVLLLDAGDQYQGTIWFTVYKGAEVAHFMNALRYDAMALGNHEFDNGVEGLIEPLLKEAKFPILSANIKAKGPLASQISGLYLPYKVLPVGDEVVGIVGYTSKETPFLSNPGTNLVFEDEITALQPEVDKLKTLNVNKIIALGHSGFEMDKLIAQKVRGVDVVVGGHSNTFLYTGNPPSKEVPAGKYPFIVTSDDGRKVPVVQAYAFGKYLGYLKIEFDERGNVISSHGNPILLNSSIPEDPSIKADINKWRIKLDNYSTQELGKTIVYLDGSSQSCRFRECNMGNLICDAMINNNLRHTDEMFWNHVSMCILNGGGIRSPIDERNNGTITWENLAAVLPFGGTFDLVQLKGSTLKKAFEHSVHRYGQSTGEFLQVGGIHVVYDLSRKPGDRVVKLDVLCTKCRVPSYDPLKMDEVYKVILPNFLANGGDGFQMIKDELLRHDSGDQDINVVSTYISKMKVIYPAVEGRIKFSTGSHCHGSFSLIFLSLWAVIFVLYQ

| SMILES | IC50 (5'-nucleotidase [1]) [µM] | IC50 (5'-nucleotidase [2]) [µM] | other results |
| --- | --- | --- | --- |
| Nc1ccn([C@@H]2O[C@H](CO)[C@@H](O)C2(F)F)c(=O)n1 [GEMCITABINE] | – | – | IC50 (MDA-MB-231): 2.22 µM; IC50 (MIA PaCa-2): 0.36 µM |
| C=C(C)[C@@H]1CC[C@]2(C(=O)O)CC[C@]3(C)[C@H](CC[C@@H]4[C@@]5(C)CC[C@H](OC(=O)N6CCC(N)CC6)C(C)(C)[C@@H]5CC[C@]43C)[C@@H]12 | > 100 | > 100 | – |
| C=C(C)[C@@H]1CC[C@]2(C(=O)O)CC[C@]3(C)[C@H](CC[C@@H]4[C@@]5(C)CC[C@H](OC(=O)N6CC(O)C6)C(C)(C)[C@@H]5CC[C@]43C)[C@@H]12 | > 100 | > 100 | – |
| C=C(C)[C@@H]1CC[C@]2(C(=O)O)CC[C@]3(C)[C@H](CC[C@@H]4[C@@]5(C)CC[C@H](OC(=O)NCCN6CCOCC6)C(C)(C)[C@@H]5CC[C@]43C)[C@@H]12 | > 100 | > 100 | – |
| C=C(C)[C@@H]1CC[C@]2(C(=O)O)CC[C@]3(C)[C@H](CC[C@@H]4[C@@]5(C)CC[C@H](OC(=O)N6CCCCC6)C(C)(C)[C@@H]5CC[C@]43C)[C@@H]12 | – | 14.6 | IC50 (MDA-MB-231): > 100 µM; Ratio IC50 [3]: 10.5; IC50 (MIA PaCa-2): > 100 µM; Ratio IC50 (5'-nucleotidase [4]): 5.2 |
| C=C(C)[C@@H]1CC[C@]2(C(=O)O)CC[C@]3(C)[C@H](CC[C@@H]4[C@@]5(C)CC[C@H](OC(=O)N6CCNCC6)C(C)(C)[C@@H]5CC[C@]43C)[C@@H]12 | 16.8 | 33.6 | Ratio IC50 [3]: 2 |
| C=C(C)[C@@H]1CC[C@]2(C(=O)O)CC[C@]3(C)[C@H](CC[C@@H]4[C@@]5(C)CCC(=O)C(C)(C)[C@@H]5CC[C@]43C)[C@@H]12 [BETUNOLIC ACID] | 43.3 | – | – |
| C=C(C)[C@@H]1CC[C@]2(C=O)CC[C@]3(C)[C@H](CC[C@@H]4[C@@]5(C)CC[C@H](O)C(C)(C)[C@@H]5CC[C@]43C)[C@@H]12 [BETULINALDEHYDE] | > 100 | – | – |
| C=C(C)[C@@H]1CC[C@]2(C(=O)O)CC[C@]3(C)[C@H](CC[C@@H]4[C@@]5(C)CC[C@H](O)C(C)(C)[C@@H]5CC[C@]43C)[C@@H]12 [BETULINIC ACID] | 7.28 | 68.8 | IC50 (MDA-MB-231): 19.1 µM; IC50 (MIA PaCa-2): 26.7 µM; Activity (CD4+ve Th): Active |
| C=C(C)[C@@H]1CC[C@]2(C(=O)O)CC[C@]3(C)[C@H](CC[C@@H]4[C@@]5(C)CC[C@H](OC(=O)N6CCCC6)C(C)(C)[C@@H]5CC[C@]43C)[C@@H]12 | > 100 | > 100 | – |
| C=C(C)[C@@H]1CC[C@]2(C(=O)O)CC[C@]3(C)[C@H](CC[C@@H]4[C@@]5(C)CC[C@H](OC(=O)N6CCN(C)CC6)C(C)(C)[C@@H]5CC[C@]43C)[C@@H]12 | > 100 | > 100 | – |
| C=C(C)[C@@H]1CC[C@]2(C(=O)O)CC[C@]3(C)[C@H](CC[C@@H]4[C@@]5(C)CC[C@H](OC(=O)NC6CC6)C(C)(C)[C@@H]5CC[C@]43C)[C@@H]12 | 81.4 | > 100 | – |
| Nc1ncnc2c1ncn2[C@@H]1O[C@H](COP(=O)(O)CP(=O)(O)O)[C@@H](O)[C@H]1O | – | – | Activity (CD4+ve Th): Active |
| C=C(C)[C@@H]1CC[C@]2(C(=O)O)CC[C@]3(C)[C@H](CC[C@@H]4[C@@]5(C)CC[C@H](OC(=O)NCCO)C(C)(C)[C@@H]5CC[C@]43C)[C@@H]12 | 37.2 | > 100 | – |
| C=C(C)[C@@H]1CC[C@]2(C(=O)O)CC[C@]3(C)[C@H](CC[C@@H]4[C@@]5(C)CC[C@H](OC(=O)NC(C)C)C(C)(C)[C@@H]5CC[C@]43C)[C@@H]12 | 5.69 | 59 | IC50 (MDA-MB-231): > 100 µM; Ratio IC50 [3]: 10.4; IC50 (MIA PaCa-2): 77.2 µM; Ratio IC50 (5'-nucleotidase [4]): 1.3 |
| C=C(C)[C@@H]1CC[C@]2(C(=O)O)CC[C@]3(C)[C@H](CC[C@@H]4[C@@]5(C)CC[C@H](O)[C@@](C)(CO)[C@@H]5CC[C@]43C)[C@@H]12 | > 100 | – | – |
